{"source": "ChEMBL document CHEMBL1134046", "about": "“Phthalazine PDE4 inhibitors. Part 2: the synthesis and biological evaluation of 6-methoxy-1,4-disubstituted derivatives” (Bioorg Med Chem Lett, 2001)", "key": {"Phosphodiesterase 4 [1]": {"target": "T1, Phosphodiesterase 4 (Homo sapiens, UniProt P27815+Q08499+Q07343+Q08493)", "assay": "Percent inhibition of human neutrophil phosphodiesterase 4 at 10e-7 M", "assay_type": "protein assay"}, "Phosphodiesterase 4 [2]": {"target": "T1, Phosphodiesterase 4", "assay": "Percent inhibition of human Phosphodiesterase 4 at 10e-7 M", "assay_type": "protein assay"}, "Phosphodiesterase 4 [3]": {"target": "T1, Phosphodiesterase 4", "assay": "Inhibition of rolipram binding to PDE4 at 10e-5 M", "assay_type": "protein assay"}, "[4]": {"assay": "Oral bioavailability in rat", "assay_type": "ADME, organism-based", "settings": "in vivo"}, "Rattus norvegicus [5]": {"organism": "Rattus norvegicus", "assay": "In vitro and metabolic stability was determined", "assay_type": "ADME"}, "Canis familiaris [6]": {"test_system": "Canis familiaris", "assay": "Emetic effect in dog after intravenous administration", "assay_type": "functional", "settings": "Canis lupus familiaris"}, "Phosphodiesterase 4 [7]": {"target": "T1, Phosphodiesterase 4", "assay": "Inhibition of rolipram binding to PDE4", "assay_type": "protein assay"}, "Rattus norvegicus [8]": {"organism": "Rattus norvegicus", "assay": "Increased acid secretion in the isolated whole rat stomach", "assay_type": "functional"}, "Homo sapiens": {"organism": "Homo sapiens", "assay": "Inhibition of TNF-alpha synthesis in human monocytes", "assay_type": "functional, organism-based"}, "Cavia porcellus [9]": {"test_system": "Cavia porcellus", "assay": "Percent inhibition of eosinophil infiltration in the guinea pig at 30 uM/kg ip", "assay_type": "functional"}, "Phosphodiesterase 4 [10]": {"target": "T1, Phosphodiesterase 4", "description": "Inhibition of human Phosphodiesterase 4"}, "Phosphodiesterase 4 [11]": {"target": "T1, Phosphodiesterase 4", "assay": "Inhibition of human neutrophil phosphodiesterase 4", "assay_type": "protein assay"}, "Phosphodiesterase 4 [12]": {"target": "T1, Phosphodiesterase 4", "assay": "Inhibition of human neutrophil Phosphodiesterase 4", "assay_type": "protein assay"}, "Phosphodiesterase 4 [13]": {"target": "T1, Phosphodiesterase 4", "assay": "Inhibition of rolipram binding to PDE4 at 10e-6 M", "assay_type": "protein assay"}, "Rattus norvegicus [14]": {"organism": "Rattus norvegicus", "assay": "In vitro metabolic stability in rat hepatocytes", "assay_type": "ADME, Hepatocyte"}, "Cavia porcellus [15]": {"test_system": "Cavia porcellus", "assay": "Percent inhibition of eosinophil infiltration in the guinea pig at 30 uM/kg (ip)", "assay_type": "functional"}, "Canis familiaris [16]": {"test_system": "Canis familiaris", "assay": "Emetic effect in dog on intravenous administration", "assay_type": "functional", "settings": "Canis lupus familiaris"}}}
{"smiles": "COc1ccc2c(Cc3c(Cl)cncc3Cl)nnc(-n3ccnc3)c2c1", "values": [{"measurement": "Inhibition", "setting": "Phosphodiesterase 4 [1]", "value": 17, "unit": "%"}]}
{"smiles": "CCCNc1nnc(Cc2c(Cl)cncc2Cl)c2ccc(OC)cc12", "values": [{"measurement": "Inhibition", "setting": "Phosphodiesterase 4 [2]", "value": 19, "unit": "%"}]}
{"smiles": "CCc1nnc(Cc2c(Cl)cncc2Cl)c2ccc(OC)cc12", "values": [{"measurement": "Inhibition", "setting": "Phosphodiesterase 4 [2]", "value": 23, "unit": "%"}]}
{"smiles": "COc1ccc2c(Cc3c(Cl)cncc3Cl)nnc(CCCCc3ccccc3)c2c1", "values": [{"measurement": "Inhibition", "setting": "Phosphodiesterase 4 [2]", "value": 19, "unit": "%"}]}
{"smiles": "COc1ccc2c(Cc3c(Cl)cncc3Cl)nncc2c1", "values": [{"measurement": "Inhibition", "setting": "Phosphodiesterase 4 [3]", "value": 42, "unit": "%"}]}
{"smiles": "COc1ccc2c(Cc3c(Cl)cncc3Cl)nnc(-c3ccccc3)c2c1", "values": [{"measurement": "bioavailability", "setting": "[4]", "value": 27, "unit": "%"}, {"measurement": "Met. stab. Cl. int", "setting": "Rattus norvegicus [5]", "value": "5.8 ul min-1 (10e6*cells)-1"}, {"measurement": "ED50", "setting": "Canis familiaris [6]", "value": "> 30", "unit": "µmol/kg"}, {"measurement": "Ki", "setting": "Phosphodiesterase 4 [7]", "value": 271, "unit": "nM"}, {"measurement": "IC50", "setting": "Rattus norvegicus [8]", "value": 4000, "unit": "nM"}, {"measurement": "IC50", "setting": "Homo sapiens", "value": 46, "unit": "nM"}, {"measurement": "Inhibition", "setting": "Cavia porcellus [9]", "value": 34, "unit": "%"}, {"measurement": "IC50", "setting": "Phosphodiesterase 4 [10]", "value": 37, "unit": "nM"}]}
{"smiles": "COc1ccc2c(Cc3c(Cl)cncc3Cl)nnc(Oc3ccccc3)c2c1", "values": [{"measurement": "IC50", "setting": "Phosphodiesterase 4 [11]", "value": 132, "unit": "nM"}, {"measurement": "Ki", "setting": "Phosphodiesterase 4 [7]", "value": 436, "unit": "nM"}, {"measurement": "IC50", "setting": "Homo sapiens", "value": 166, "unit": "nM"}]}
{"smiles": "C#Cc1nnc(Cc2c(Cl)cncc2Cl)c2ccc(OC)cc12", "values": [{"measurement": "Ki", "setting": "Phosphodiesterase 4 [7]", "value": 204, "unit": "nM"}, {"measurement": "IC50", "setting": "Homo sapiens", "value": 87, "unit": "nM"}, {"measurement": "IC50", "setting": "Phosphodiesterase 4 [10]", "value": 93, "unit": "nM"}]}
{"smiles": "COc1ccc2c(Cc3c(Cl)cncc3Cl)nnc(N(C)C)c2c1", "values": [{"measurement": "Inhibition", "setting": "Phosphodiesterase 4 [2]", "value": 39, "unit": "%"}]}
{"smiles": "COc1ccc2c(Cc3c(Cl)cncc3Cl)nnc(N3CCN(C)CC3)c2c1", "values": [{"measurement": "Inhibition", "setting": "Phosphodiesterase 4 [2]", "value": 16, "unit": "%"}]}
{"smiles": "COc1ccc2c(Cc3c(Cl)cncc3Cl)nnc(N3CCCC3=O)c2c1", "values": [{"measurement": "Inhibition", "setting": "Phosphodiesterase 4 [1]", "value": 6, "unit": "%"}]}
{"smiles": "COc1ccc2c(Cc3c(Cl)cncc3Cl)nnc(N3CCOCC3)c2c1", "values": [{"measurement": "IC50", "setting": "Phosphodiesterase 4 [12]", "value": 132, "unit": "nM"}, {"measurement": "Ki", "setting": "Phosphodiesterase 4 [7]", "value": 452, "unit": "nM"}, {"measurement": "IC50", "setting": "Homo sapiens", "value": 62, "unit": "nM"}]}
{"smiles": "COc1ccc2c(Cc3c(Cl)cncc3Cl)nncc2c1OC1CCCC1", "values": [{"measurement": "IC50", "setting": "Homo sapiens", "value": 224, "unit": "nM"}]}
{"smiles": "COc1ccc2c(Cc3c(Cl)cncc3Cl)nnc(-c3nccs3)c2c1", "values": [{"measurement": "Ki", "setting": "Phosphodiesterase 4 [7]", "value": 34, "unit": "nM"}, {"measurement": "IC50", "setting": "Homo sapiens", "value": 8, "unit": "nM"}, {"measurement": "IC50", "setting": "Phosphodiesterase 4 [10]", "value": 14, "unit": "nM"}]}
{"smiles": "COc1ccc2c(Cc3c(Cl)cncc3Cl)nnc(N3CCCC3)c2c1", "values": [{"measurement": "Ki", "setting": "Phosphodiesterase 4 [7]", "value": 89, "unit": "nM"}, {"measurement": "IC50", "setting": "Homo sapiens", "value": 9, "unit": "nM"}, {"measurement": "IC50", "setting": "Phosphodiesterase 4 [10]", "value": 38, "unit": "nM"}]}
{"smiles": "COc1ccc2c(Cc3c(Cl)c[n+]([O-])cc3Cl)nnc(-c3nccs3)c2c1", "values": [{"measurement": "Ki", "setting": "Phosphodiesterase 4 [7]", "value": 17, "unit": "nM"}, {"measurement": "IC50", "setting": "Homo sapiens", "value": 3, "unit": "nM"}, {"measurement": "IC50", "setting": "Phosphodiesterase 4 [10]", "value": 4, "unit": "nM"}]}
{"smiles": "COc1ccc2c(Cc3c(Cl)cncc3Cl)nnc(C#Cc3ccccc3)c2c1", "values": [{"measurement": "Inhibition", "setting": "Phosphodiesterase 4 [13]", "value": 21, "unit": "%"}, {"measurement": "IC50", "setting": "Homo sapiens", "value": 273, "unit": "nM"}, {"measurement": "IC50", "setting": "Phosphodiesterase 4 [10]", "value": 48, "unit": "nM"}]}
{"smiles": "COc1ccc2c(Cc3c(Cl)cncc3Cl)nnc(-n3cncn3)c2c1", "values": [{"measurement": "bioavailability", "setting": "[4]", "value": 27, "unit": "%"}, {"measurement": "Met. stab. Cl. int", "setting": "Rattus norvegicus [14]", "value": "1.5 ul min-1 (10e6*cells)-1"}, {"measurement": "ED50", "setting": "Canis familiaris [6]", "value": "> 30", "unit": "µmol/kg"}, {"measurement": "Inhibition", "setting": "Cavia porcellus [15]", "value": 37, "unit": "%"}, {"measurement": "IC50", "setting": "Phosphodiesterase 4 [11]", "value": 72, "unit": "nM"}, {"measurement": "Ki", "setting": "Phosphodiesterase 4 [7]", "value": 241, "unit": "nM"}, {"measurement": "IC50", "setting": "Rattus norvegicus [8]", "value": "> 30000", "unit": "nM"}, {"measurement": "Inhibition", "setting": "Rattus norvegicus [8]", "value": 33, "unit": "%"}, {"measurement": "IC50", "setting": "Homo sapiens", "value": 72, "unit": "nM"}]}
{"smiles": "COc1ccc([C@]2(C#N)CC[C@@H](C(=O)O)CC2)cc1OC1CCCC1", "note": "[CILOMILAST]", "values": [{"measurement": "bioavailability", "setting": "[4]", "value": 35, "unit": "%"}, {"measurement": "Met. stab. Cl. int", "setting": "Rattus norvegicus [14]", "value": "9.2 ul min-1 (10e6*cells)-1"}, {"measurement": "Inhibition", "setting": "Cavia porcellus [15]", "value": 17, "unit": "%"}, {"measurement": "IC50", "setting": "Rattus norvegicus [8]", "value": 1000, "unit": "nM"}, {"measurement": "ED50", "setting": "Canis familiaris [16]", "value": 10, "unit": "µmol/kg"}, {"measurement": "IC50", "setting": "Homo sapiens", "value": 158, "unit": "nM"}]}
